# According to article PMC5991783, “Discovery and Optimization of Indolyl-Containing 4-Hydroxy-2-Pyridone Type II DNA Topoisomerase Inhibitors Active against Multidrug Resistant Gram-negative Bacteria” (Journal of Medicinal Chemistry, 2018):
# pIC50: −log10 of the molar value. Marks after values point to notes of the source that are not given here.
# Key:
# [1] = test system: Acinetobacter baumannii ATCC BAA-747; experiment: MIC, wild-type A. baumannii; type: cell-based; details: Acinetobacter baumannii, ATCCBAA747; A. baumannii ATCC BAA-747; read-out: MIC A. bau^WT
# E. coli^WT (ATCC 25922) = experiment: Mouse septicemia model; type: in vivo, CD-1 mice; details: 96 h
# E. coli ATCC 25922 = experiment: MIC, wild-type E. coli ATCC 25922; type: cell-based, Escherichia coli; details: Escherichia coli, ATCC25922; E. coli ATCC 25922; read-out: MIC E. coli^WT
# human topoisomerase II = human topoisomerase II (Homo sapiens, UniProt P11388); experiment: Human topoisomerase II decatenation assay; type: biochemical; details: Supplemental Table 1; read-out: Human Topo II IC50
# human topoisomerase II, sequence (P11388 whole entry): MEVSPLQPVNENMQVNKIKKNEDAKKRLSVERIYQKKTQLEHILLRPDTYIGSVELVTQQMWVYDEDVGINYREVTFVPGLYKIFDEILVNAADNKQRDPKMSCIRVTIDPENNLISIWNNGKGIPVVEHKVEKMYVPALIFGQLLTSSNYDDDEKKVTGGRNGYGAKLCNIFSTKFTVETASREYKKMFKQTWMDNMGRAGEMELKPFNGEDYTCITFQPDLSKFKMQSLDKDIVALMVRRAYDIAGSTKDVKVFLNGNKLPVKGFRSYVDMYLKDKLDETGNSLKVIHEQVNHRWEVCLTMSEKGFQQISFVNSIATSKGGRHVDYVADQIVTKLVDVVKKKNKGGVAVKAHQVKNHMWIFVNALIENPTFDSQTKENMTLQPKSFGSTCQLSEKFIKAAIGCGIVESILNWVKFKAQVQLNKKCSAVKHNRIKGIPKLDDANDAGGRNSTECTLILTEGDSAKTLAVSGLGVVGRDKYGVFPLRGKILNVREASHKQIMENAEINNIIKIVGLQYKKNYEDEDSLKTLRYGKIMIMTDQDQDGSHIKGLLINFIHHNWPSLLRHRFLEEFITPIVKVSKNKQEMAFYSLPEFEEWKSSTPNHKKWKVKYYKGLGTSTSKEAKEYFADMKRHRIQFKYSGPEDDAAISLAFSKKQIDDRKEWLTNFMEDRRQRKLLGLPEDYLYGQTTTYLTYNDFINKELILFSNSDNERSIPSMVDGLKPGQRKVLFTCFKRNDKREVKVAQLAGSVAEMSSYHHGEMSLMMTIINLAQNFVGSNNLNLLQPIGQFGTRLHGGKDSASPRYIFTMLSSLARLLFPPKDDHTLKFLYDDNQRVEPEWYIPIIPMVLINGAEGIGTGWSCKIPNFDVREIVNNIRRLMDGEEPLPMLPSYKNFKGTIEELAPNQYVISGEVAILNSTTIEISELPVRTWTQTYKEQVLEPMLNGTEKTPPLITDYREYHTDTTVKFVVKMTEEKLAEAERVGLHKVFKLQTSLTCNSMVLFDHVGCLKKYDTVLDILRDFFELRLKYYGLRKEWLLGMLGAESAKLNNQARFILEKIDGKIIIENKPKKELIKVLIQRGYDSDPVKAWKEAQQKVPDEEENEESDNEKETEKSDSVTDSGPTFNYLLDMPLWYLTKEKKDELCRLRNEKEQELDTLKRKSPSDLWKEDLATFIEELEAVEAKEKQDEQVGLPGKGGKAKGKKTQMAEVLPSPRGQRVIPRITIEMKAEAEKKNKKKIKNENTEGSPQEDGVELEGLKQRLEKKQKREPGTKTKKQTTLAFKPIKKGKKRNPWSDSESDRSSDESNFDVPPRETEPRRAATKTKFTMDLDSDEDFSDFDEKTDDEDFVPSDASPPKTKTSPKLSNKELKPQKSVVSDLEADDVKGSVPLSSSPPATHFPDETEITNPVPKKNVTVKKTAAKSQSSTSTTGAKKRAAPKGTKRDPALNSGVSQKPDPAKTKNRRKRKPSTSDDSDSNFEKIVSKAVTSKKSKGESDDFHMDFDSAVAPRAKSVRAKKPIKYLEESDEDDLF
# E. coli ELZ4251 = experiment: MIC, clinical isolate E. coli ELZ4251; type: cell-based; details: Escherichia coli, read-out: MIC E. coli^R2
# [2] = test system: panel of 12 E. coli isolates; experiment: Susceptibility testing, 12 E. coli isolates; type: cell-based, Escherichia coli; details: 12 strains
# A. baumannii MMX2240 = experiment: MIC, fluoroquinolone resistant A. baumannii; type: cell-based, Acinetobacter baumannii; details: Acinetobacter baumannii
# [3] = Pharmacokinetics in CD-1 mice; details: CD-1, mouse, plasma
# [4] = test system: panel of 12 A. baumannii isolates; experiment: Susceptibility testing, 12 A. baumannii isolates; type: cell-based, Acinetobacter baumannii; details: 12 strains
# E. coli SKM18 = experiment: microbe, parasite or virus in culture; type: cell-based, Escherichia coli
# E. coli DNA gyrase = E. coli DNA gyrase (Escherichia coli, UniProt P0AES4+P0AES6); experiment: biochemical; details: E. coli DNA gyrase IC50
# [5] = test system: Klebsiella pneumoniae ATCC 35657; experiment: MIC, wild-type K. pneumoniae; type: cell-based; details: Klebsiella pneumoniae, ATCC35657; K. pneumoniae ATCC 35657; read-out: MIC K. pneu^WT
# [6] = Mouse plasma protein binding, equilibrium dialysis
# [7] = molecular target: E. coli DNA gyrase^SD-LY (GyrA S83L, D87Y) (Escherichia coli, UniProt P0AES4+P0AES6, D87Y/S83L); type: biochemical; details: IC50 ratio
# E. coli SKM11 = type: cell-based, Escherichia coli
# E. coli 1609 = experiment: MIC, wild-type E. coli 1609; type: cell-based; details: Escherichia coli, read-out: MIC E. coli^WT2
# in vivo = details: CD-1, mouse, iv, 3 mg/kg
smiles,measurement,setting,value
"CCC(C)NCc1cc2cc3c(cc2n1C)OCCc1c-3[nH]c(=O)c(C(=O)O)c1O.Cl (centres unmarked) [Compound 6o, 10-((sec-Butylamino)methyl)-4-hydroxy-9-methyl-2-oxo-2,5,6,9-tetrahydro-1H-pyrido[2′,3′:4,5]oxepino[3,2-f]indole-3-carboxylic Acid Hydrochloride]",MIC,[1],1.6 µg/mL
same,responders at 20 mg/kg,"E. coli^WT (ATCC 25922); Mus musculus, iv, read-out: survival",100%
same,MIC,E. coli ATCC 25922,0.78 µg/mL
same,pIC50,human topoisomerase II,< 4.00
same,MIC,E. coli ELZ4251,2 µg/mL
same,E. coli MIC90,[2]; Mueller Hinton II broth,1 µg/mL
same,MIC90,"[2]; Escherichia coli, Mueller Hinton II broth, read-out: E. coli MIC90",0.5 to 1 µg/mL
same,MIC50,[2]; Escherichia coli,1 µg/mL
same,MIC,"[2]; Escherichia coli, read-out: E. coli MIC range",0.12 to 1 µg/mL
same,MIC,A. baumannii MMX2240,0.78 µg/mL
same,AUC(0-t),"[3]; iv, 10 mg/kg, pH 8",3440 ng·h/mL
same,clearance,"[3]; iv, 10 mg/kg, pH 8",48 mL/min/kg
same,half-life,"[3]; iv, 10 mg/kg, pH 8",2.1 h
same,bioavailability,[3]; po,41%
same,A. baumannii MIC90,[4]; Mueller Hinton II broth,8 µg/mL
same,MIC90,"[4]; Acinetobacter baumannii, Mueller Hinton II broth, read-out: A. baumannii MIC90",8 to 16 µg/mL
same,MIC50,[4]; Acinetobacter baumannii,2 µg/mL
same,MIC,"E. coli SKM18; Escherichia coli, SKM18, read-out: MIC E. coli^R1, E. coli SKM18",0.78 µg/mL
same,pIC50,E. coli DNA gyrase,6.96
same,MIC,[5],1 µg/mL
same,fraction unbound at 1 μM,[6],0.23
O=C(O)c1cn(C2CC2)c2cc(N3CCNCC3)c(F)cc2c1=O [ciprofloxacin],MIC,E. coli ATCC 25922,0.012 µg/mL
same,reduction in activity against DNA gyrase^SD-LY compared to DNA gyrase^WT,[7],greater than 13 fold
same,increase in MIC against E. coli^R3,E. coli SKM11,32 fold
same,MIC E. coli^R1,E. coli SKM18; E. coli SKM18,> 250 µg/mL
same,increase in MIC against E. coli^R1,"E. coli SKM18; additional Topo IV mutations, vs E. coli^R3",~250 fold
same,MIC,E. coli 1609,0.024 µg/mL
"COc1c(N2C[C@@H]3CCCN[C@@H]3C2)c(F)cc2c(=O)c(C(=O)O)cn(C3CC3)c12 [moxifloxacin, reference compound]",AUC(0-t) at 24 h,in vivo,640 ng·h/mL
same,survival,"E. coli^WT (ATCC 25922); neutropenic mice, E. coli^WT 100 × LD50, 3 mg/kg at 1 and 5 h postinfection (b.i.d.)",100 ^n %
